Laboratory results taken from patent US5908832A, “Peptide analog” (University of Houston - Clearlake, priority 1991, dated 1999).

Tests used:
[1] = test system: analgesic effects of morphine; conditions: in vivo; cited from earlier work
opiate-naive rats = conditions: 15 μg i.c.v.; cited from earlier work
morphine-dependent rats [2] = conditions: 2 μg i.c.v.; cited from earlier work
specific NPFF receptors = conditions: spinal cord membranes; cited from earlier work
morphine-dependent rats [3] = assay: Naloxone-precipitated abstinence in morphine-dependent rats; format: in vivo, Sprague-Dawley rats
Procedure: Each rat was stereotaxically cannulated in the third ventricle under equithesin anesthesia. Cannula placements were subsequently confirmed by injection of methylene blue dye.
Drugs for third ventricle injection were dissolved in isotonic saline.
Following the rats way infusion period, rats were randomly divided into two treatment groups of seven rats each. Each rat received a third ventricular injection of either 600 ng daY8Ra in 30 μl saline or saline alone. Twenty-eight minutes after conclusion of the above injections, all rats were challenged by 10 μg naloxone HCl in 30 μl saline i.c.v.
Each rat was subsequently observed for 20 minutes, commencing with the onset of naloxone challenge.

CC(C)C[C@H](NC(=O)[C@@H](N)Cc1ccccc1)C(=O)N[C@@H](Cc1ccccc1)C(=O)N[C@@H](CCC(N)=O)C(=O)N1CCC[C@H]1C(=O)N[C@@H](CCC(N)=O)C(=O)N[C@@H](CCCNC(=N)N)C(=O)N[C@@H](Cc1ccccc1)C(N)=O [NPFF, Phe-Leu-Phe-Gln-Pro-Gln-Arg-Phe-amide]
effect on analgesic effects of morphine and certain endogenous opioid peptides [1]: potently antagonizes | induction of quasi-morphine-abstinence syndrome (QMAS) (opiate-naive rats): induces a quasi-morphine-abstinence syndrome | precipitation of opiate abstinence syndrome (morphine-dependent rats [2]): precipitates opiate abstinence syndrome | affinity of the 125I-Y8Fa binding site (specific NPFF receptors): high affinity | abstinence syndrome after naloxone challenge vs saline pretreatment (one-way ANOVA) (morphine-dependent rats [3]; 600 ng i.c.v. pretreatment, 10 μg naloxone HCl i.c.v., Example III): no significant differences among groups | abstinence signs following the peptide injection itself (total frequency, M±SEM) (morphine-dependent rats [3]; morphine-dependent rats, 600 ng i.c.v., observed 14 minutes from onset of injection, before naloxone): 3.67±0.99
